Data from patent US20070049564A1 (Wyeth, priority 2005, published 2007).

What was measured:
E. coli #311 = test: In vivo activity (oral, iv; ED50) against E. coli in mice; details: mice, Table 7
From the text: . […] Smith and E. Coli #311 in mammals.
Results of the tests (MIC, oral and IV) are list in Table 7.

Staph. aureus Smith [1] = test: In vitro activity (MIC) against Staph. aureus Smith; assay type: cell-based; details: Table 6
E. coli [2] = test: In vitro activity (MIC) against E. coli (Table 7); assay type: cell-based
E. coli [3] = test: Range of MIC for E. coli strains; details: Water; Table 1
Procedure: (§1) Antimicrobial susceptibility testing. The in vitro activities of the antibiotics are determined by the broth microdilution method as recommended by the National Committee for Clinical Laboratory Standards (NCCLS) (1). Mueller-Hinton II broth (MHBII)(BBL Cockeysville, Md.) is the medium employed in the testing procedures. Microtiter plates containing serial dilutions of each antimicrobial agent are inoculated with each organism to yield the appropriate density (10^5 CFU/ml) in a 100 μl final volume. The plates are incubated for 18-22 hours at 35° C. in ambient air.
(§2) Representative compounds were first incubated in mouse serum for an hour prior to the in vitro testing against a panel of selected gram-positive and gram-negative bacteria strains. All compounds were also pre-incubated in water for an hour prior to testing as control. Representative compounds of Formula I were incubated in human serum prior to MIC determination.

[4] = test system: E. coli, tet(A-D), efflux; test: In vitro activity (MIC), strain groups; details: E. coli, tet(A-D), efflux; Mouse serum
Procedure: as §1, §2

[5] = test system: E. coli, tet (M,S,O) Tet (M); test: In vitro activity (MIC), strain groups; details: E. coli, tet (M,S,O) Tet (M)
Procedure: as §1
(§3) Presented in Tables I-XIII are representative compounds of Formula I which were evaluated against a panel of 40 selected gram-positive and gram-negative bacteria strains by pre-incubation in water, mouse serum or human serum. Representative compounds were first incubated in mouse serum for an hour prior to the in vitro testing against a panel of selected gram-positive and gram-negative bacteria strains. All compounds were also pre-incubated in water for an hour prior to testing as control. Representative compounds of Formula I were incubated in human serum prior to MIC determination.

S. aureus, tet (M) = test: In vitro activity (MIC), strain groups
Procedure: as §1, §2

Enterococcus spp. = test: In vitro activity (MIC), strain groups; details: Enterococcus spp.
Procedure: as §1, §3

Streptococcus spp. = test: In vitro activity (MIC), strain groups; details: Streptococcus spp.
Procedure: as §1, §3

Staph. = test: Range of MIC for Staph. strains, including MRSA; details: including MRSA, Table 1
Staph. aureus Smith [6] = test: In vivo activity (oral, iv; ED50) against Staph. aureus Smith in mice; details: mice, Table 6
Procedure: Representative examples of compounds of Formula I were tested for the oral efficacy using S. aureus Smith in mice.

[({[(5aR,6aS,7S,10aS)-9-(aminocarbonyl)-4,7-bis(dimethylamino)-1,8,10a,11-tetrahydroxy-10,12-dioxo-5,5a,6,6a,7,10,10a,12-octahydrotetracen-2-yl]amino}carbonyl)oxy]methyl 4-tert-butylbenzoate [Example 87]
ED50 SIV (E. coli) (E. coli #311; single intravenous dose): 3.6 mg/kg
ED50 SOD (E. coli) (E. coli #311; single oral dose): 60.4 mg/kg
MIC (Staph aureus Smith) (Staph. aureus Smith [1]): 32 µg/mL
MIC (E. coli) (E. coli [2]): >64 µg/mL
Range of MIC, E. coli (Water) (E. coli [3]): >64 µg/mL
In vitro activity (MIC) [4]: 0.25-0.5
In vitro activity (MIC) ([5]; Human serum): >64
In vitro activity (MIC) ([5]; Mouse serum): 0.25-0.5
In vitro activity (MIC) ([5]; water): >64
In vitro activity (MIC) (S. aureus, tet (M); Human serum): 16
In vitro activity (MIC) (S. aureus, tet (M); Mouse serum): 0.5
In vitro activity (MIC) (S. aureus, tet (M); water): 64
In vitro activity (MIC) (Enterococcus spp.; Human serum): 0.25-8
In vitro activity (MIC) (Enterococcus spp.; Mouse serum): 0.12-0.5
In vitro activity (MIC) (Enterococcus spp.; water): 0.25-32
In vitro activity (MIC) (Streptococcus spp.; Human serum): 1-2
In vitro activity (MIC) (Streptococcus spp.; water): 0.5-2
Range of MIC, Staph (Mouse Serum) (Staph.; Mouse Serum): 32 to 64 µg/mL
Range of MIC, Staph (Water) (Staph.; Water): >64 µg/mL
ED50 SIV (Staph aureus Smith) (Staph. aureus Smith [6]; single intravenous dose): 0.83 mg/kg
ED50 SOD (Staph aureus Smith) (Staph. aureus Smith [6]; single oral dose): 12.82 mg/kg
